Patent US9173891B2, “Treatment of ovarian cancer using an anticancer agent conjugated to an angiopep-2 analog” (Angiochem, Inc., priority 2009, dated 2015)

Columns and labels:
[1] = tested on: metastatic ovarian cancer; experiment: Prior standard chemotherapy of the ovarian cancer patient before the ANG1005 trial; format: in vivo, human; details: prior therapy 2007-2008
Method: The patient was originally diagnosed in November 2006 with ovarian cancer. […] From February 2008 to March 2008, the patient received a combination of Gemzar® (gemcitabine) and […]® (topotecan). The patient was again given a combination of Taxotere® (docetaxel) and carboplatin from March 2008 until July 2008. In November 2008, the patient was administered Doxil® (doxorubicin).

LRP receptor = target: T1, LRP receptor (Rattus norvegicus, UniProt G3V928); experiment: In situ rat brain perfusion, uptake inhibition by LRP ligands or Angiopep peptides; format: in vivo; details: for brain uptake of an Angiopep conjugate: FIG. 6B
T1 construct: from tissue; host or cells: brain of male Sprague Dawley rats (in situ perfusion)
T1 sequence (G3V928 20-4545): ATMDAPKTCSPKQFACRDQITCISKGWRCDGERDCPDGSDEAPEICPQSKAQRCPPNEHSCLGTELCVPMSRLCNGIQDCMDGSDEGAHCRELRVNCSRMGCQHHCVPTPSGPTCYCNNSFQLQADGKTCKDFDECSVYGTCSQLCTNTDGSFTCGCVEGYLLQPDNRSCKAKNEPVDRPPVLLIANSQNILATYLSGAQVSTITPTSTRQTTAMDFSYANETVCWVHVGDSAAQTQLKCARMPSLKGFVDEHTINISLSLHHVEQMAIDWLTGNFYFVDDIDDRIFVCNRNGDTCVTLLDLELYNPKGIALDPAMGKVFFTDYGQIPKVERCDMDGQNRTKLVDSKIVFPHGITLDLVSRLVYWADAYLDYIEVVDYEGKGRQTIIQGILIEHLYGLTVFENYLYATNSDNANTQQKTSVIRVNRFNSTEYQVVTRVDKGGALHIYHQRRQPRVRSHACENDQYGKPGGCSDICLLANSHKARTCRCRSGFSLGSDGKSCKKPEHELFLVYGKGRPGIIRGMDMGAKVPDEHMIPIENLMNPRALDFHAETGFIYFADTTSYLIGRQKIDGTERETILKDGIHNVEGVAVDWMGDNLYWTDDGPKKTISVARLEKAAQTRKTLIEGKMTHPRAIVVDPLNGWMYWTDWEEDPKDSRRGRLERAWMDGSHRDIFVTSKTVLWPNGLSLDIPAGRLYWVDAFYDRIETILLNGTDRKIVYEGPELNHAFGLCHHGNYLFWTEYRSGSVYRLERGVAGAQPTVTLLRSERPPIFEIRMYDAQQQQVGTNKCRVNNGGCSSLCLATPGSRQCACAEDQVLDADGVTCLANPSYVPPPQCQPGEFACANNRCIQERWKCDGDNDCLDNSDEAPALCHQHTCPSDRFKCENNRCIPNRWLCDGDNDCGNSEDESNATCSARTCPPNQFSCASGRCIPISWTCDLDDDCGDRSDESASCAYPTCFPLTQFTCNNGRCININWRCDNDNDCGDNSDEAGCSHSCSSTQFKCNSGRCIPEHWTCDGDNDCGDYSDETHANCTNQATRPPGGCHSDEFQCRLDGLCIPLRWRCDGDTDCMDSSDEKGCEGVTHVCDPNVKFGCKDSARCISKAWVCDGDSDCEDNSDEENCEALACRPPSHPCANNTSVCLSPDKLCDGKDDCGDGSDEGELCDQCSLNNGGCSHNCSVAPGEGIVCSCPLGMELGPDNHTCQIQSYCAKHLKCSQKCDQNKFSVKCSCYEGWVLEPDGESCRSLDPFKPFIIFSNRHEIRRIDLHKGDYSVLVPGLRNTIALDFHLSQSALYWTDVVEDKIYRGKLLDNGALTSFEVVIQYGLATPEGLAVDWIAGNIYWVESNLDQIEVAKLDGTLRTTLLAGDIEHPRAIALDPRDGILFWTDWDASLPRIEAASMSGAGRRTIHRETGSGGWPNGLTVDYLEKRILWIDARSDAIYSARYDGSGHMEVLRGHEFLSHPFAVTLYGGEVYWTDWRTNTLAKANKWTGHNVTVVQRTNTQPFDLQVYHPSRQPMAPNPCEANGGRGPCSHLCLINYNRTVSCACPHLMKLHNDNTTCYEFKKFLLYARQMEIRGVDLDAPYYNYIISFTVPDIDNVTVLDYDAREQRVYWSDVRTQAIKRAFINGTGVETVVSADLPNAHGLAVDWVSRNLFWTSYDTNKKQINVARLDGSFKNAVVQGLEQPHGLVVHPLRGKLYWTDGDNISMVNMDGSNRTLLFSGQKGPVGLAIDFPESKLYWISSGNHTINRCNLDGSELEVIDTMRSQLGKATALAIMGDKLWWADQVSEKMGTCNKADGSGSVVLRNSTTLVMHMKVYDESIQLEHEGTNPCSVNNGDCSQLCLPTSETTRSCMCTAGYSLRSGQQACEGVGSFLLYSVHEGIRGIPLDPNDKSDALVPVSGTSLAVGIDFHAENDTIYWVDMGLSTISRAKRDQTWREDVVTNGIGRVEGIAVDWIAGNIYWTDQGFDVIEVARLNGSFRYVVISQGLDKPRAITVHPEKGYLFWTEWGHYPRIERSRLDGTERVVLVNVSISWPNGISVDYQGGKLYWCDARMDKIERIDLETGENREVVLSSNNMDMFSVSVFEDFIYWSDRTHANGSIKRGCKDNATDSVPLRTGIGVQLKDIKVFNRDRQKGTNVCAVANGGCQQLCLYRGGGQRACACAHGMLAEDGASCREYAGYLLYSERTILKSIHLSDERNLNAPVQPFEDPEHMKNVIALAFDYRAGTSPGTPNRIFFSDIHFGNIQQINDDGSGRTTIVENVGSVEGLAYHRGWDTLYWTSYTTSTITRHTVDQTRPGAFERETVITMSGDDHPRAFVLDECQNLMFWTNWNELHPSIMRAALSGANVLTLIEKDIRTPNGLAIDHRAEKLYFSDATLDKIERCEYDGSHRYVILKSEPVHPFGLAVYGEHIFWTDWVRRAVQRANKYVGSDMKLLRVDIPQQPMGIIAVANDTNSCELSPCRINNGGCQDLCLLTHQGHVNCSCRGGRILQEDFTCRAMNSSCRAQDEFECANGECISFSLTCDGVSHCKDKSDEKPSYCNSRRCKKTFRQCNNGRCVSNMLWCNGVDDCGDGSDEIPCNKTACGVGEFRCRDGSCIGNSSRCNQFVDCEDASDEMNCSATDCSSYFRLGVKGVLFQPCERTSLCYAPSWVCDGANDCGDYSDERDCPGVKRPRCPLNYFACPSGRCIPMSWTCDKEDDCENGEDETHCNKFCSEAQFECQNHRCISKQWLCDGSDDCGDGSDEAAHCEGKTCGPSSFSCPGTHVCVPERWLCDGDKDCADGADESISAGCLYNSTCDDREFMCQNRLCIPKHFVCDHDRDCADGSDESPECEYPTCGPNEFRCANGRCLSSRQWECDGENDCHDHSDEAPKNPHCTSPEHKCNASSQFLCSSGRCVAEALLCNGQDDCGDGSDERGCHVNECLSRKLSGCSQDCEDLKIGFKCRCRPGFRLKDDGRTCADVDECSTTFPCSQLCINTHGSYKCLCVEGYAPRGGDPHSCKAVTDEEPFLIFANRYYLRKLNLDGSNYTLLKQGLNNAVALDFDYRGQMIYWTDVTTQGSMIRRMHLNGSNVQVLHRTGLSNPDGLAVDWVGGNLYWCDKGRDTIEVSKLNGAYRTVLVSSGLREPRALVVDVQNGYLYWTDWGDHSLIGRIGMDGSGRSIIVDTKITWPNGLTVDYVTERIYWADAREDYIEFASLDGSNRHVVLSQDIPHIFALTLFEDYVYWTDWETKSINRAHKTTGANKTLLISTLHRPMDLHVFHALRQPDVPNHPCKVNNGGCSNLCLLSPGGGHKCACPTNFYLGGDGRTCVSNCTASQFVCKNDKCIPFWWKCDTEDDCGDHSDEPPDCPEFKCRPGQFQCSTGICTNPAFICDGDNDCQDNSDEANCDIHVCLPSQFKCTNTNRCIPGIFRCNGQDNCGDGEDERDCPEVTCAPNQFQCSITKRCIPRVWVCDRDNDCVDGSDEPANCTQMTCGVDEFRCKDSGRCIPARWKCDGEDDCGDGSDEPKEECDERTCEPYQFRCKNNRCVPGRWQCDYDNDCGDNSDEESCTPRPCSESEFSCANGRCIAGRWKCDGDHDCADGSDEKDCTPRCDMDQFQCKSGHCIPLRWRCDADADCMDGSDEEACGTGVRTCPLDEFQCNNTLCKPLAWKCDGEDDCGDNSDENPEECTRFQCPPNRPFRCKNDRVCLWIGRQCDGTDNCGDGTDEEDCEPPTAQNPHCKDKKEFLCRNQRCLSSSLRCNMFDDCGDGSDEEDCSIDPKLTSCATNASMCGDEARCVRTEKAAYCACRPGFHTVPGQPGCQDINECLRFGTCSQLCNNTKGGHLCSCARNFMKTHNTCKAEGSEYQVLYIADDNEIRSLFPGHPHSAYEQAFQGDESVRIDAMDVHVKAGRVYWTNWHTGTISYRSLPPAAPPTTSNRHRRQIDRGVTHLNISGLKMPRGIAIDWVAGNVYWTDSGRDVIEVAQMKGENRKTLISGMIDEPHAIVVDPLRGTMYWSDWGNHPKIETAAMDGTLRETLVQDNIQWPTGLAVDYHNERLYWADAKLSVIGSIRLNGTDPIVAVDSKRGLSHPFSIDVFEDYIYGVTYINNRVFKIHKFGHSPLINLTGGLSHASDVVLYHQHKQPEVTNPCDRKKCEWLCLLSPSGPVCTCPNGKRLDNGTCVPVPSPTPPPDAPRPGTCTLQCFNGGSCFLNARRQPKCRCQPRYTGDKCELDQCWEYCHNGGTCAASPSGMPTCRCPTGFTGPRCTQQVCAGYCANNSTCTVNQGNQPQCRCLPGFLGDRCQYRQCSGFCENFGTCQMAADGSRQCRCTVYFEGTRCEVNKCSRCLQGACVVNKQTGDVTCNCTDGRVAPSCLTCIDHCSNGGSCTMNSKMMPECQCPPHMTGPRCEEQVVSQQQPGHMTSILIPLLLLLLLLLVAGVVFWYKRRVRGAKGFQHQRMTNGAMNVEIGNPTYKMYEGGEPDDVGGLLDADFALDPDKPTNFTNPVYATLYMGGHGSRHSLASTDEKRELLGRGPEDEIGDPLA
Description: The methods of the invention may be especially useful in treating cancers having cells that express low density lipoprotein-related protein (LRP) receptor. The LRP receptor is expressed on the surface of cells, and is capable of binding to various substrates including aprotinin, β-amyloid, tissue plasminogen activator (tPA), melano-transferrin, and receptor associated peptide (RAP). The peptides described herein were designed based on the consensus kunitz-domain sequences that act as LRP receptor ligands (see, e.g., PCT Publication No. WO 2004/060403). Uptake of the conjugates including Angiopep-1 or Angiopep-2 is inhibited by LRP ligands, thus indicating involvement of LRP in this process. […] Angiopep-2 (10 or 100 μM) is similarly able to reduce uptake of the conjugates into cells (FIGS. 6A and 6B).
The results described in FIGS. 4A and 4B were obtained using an in situ rat brain perfusion. Male Sprague Dawley rats were anesthetized with […] i.p., of sodium pentobarbital (Nembutal, Abbott Laboratories, North Chicago, Ill., USA). The neck region was shaved and the common carotid artery was exposed. The external carotid artery was ligated, but the pterygopalatine artery was not occluded. A PE-60 catheter filled with heparinized 0.9% saline (100 IU/mL) was inserted into the common carotid artery upon ligation. A heating pad linked to YSI feedback controller device (Yellow Springs Instruments, Yellow Springs, Ohio, USA) was used to maintain the rat body temperature at 37° C. The PE-60 catheter was attached to a glass syringe filled with the tracer; with or without inhibitors, in a bicarbonate-buffered physiological saline (Smith Q R., Pharm Biotechnol 8:285-307, 1996) mounted on a Harvard infusion pump (Harvard Biosciences, South Natick, Mass., USA) maintained at 37° C. Dual-labeled experiments were performed for studying the brain uptake. [^14C]Sucrose was used as a vascular volume marker. Perfusion was started upon severing the heart to stop blood flow to the brain. […] The samples were weighed and counted using the gamma counter (Cobra 600) to determine the ^125I labeled drug. […]

Compound	course of patient's cancer after receiving the agent [1]	other results
N.N.O=C([O-])C1(C(=O)[O-])CCC1.[Pt+2] [carboplatin]	continued to progress	
CC(=O)O[C@@]12CO[C@@H]1C[C@H](O)[C@@]1(C)C(=O)[C@H](O)C3=C(C)[C@@H](OC(=O)[C@H](O)[C@@H](NC(=O)OC(C)(C)C)c4ccccc4)C[C@@](O)([C@@H](OC(=O)c4ccccc4)[C@H]21)C3(C)C [docetaxel]	continued to progress	
COc1cccc2c1C(=O)c1c(O)c3c(c(O)c1C2=O)C[C@@](O)(C(=O)CO)C[C@@H]3O[C@H]1C[C@H](N)[C@H](O)[C@H](C)O1 [doxorubicin]	continued to progress	
Nc1ccn([C@@H]2O[C@H](CO)[C@@H](O)C2(F)F)c(=O)n1 [gemcitabine]	continued to progress	
CC[C@@]1(O)C(=O)OCc2c1cc1n(c2=O)Cc2cc3c(CN(C)C)c(O)ccc3nc2-1 [topotecan]	continued to progress	
Angiopep-2: peptide vector, sequence TFFYGGSRGKRNNFKTEEY		uptake of the conjugates into cells (LRP receptor; Angiopep-2 10 or 100 μM, FIG. 6A): reduce uptake
RAP: LRP ligand, receptor associated protein (RAP)		brain uptake of an Angiopep conjugate (LRP receptor; RAP 200 nM co-perfused): reducing brain uptake
aprotinin		brain uptake of an Angiopep conjugate (LRP receptor; aprotinin 10 μM co-perfused): reducing brain uptake
